SMILES strings stand for the structures.

The source of these data is patent publication US8802694B2, “3,6-diazabicyclo[3.1.1]heptanes as neuronal nicotinic acetycholine receptor ligands” (Targacept, Inc., priority 2009, dated 2014).

The target in the first assay is T1, Rat α4β2 (Rattus norvegicus, UniProt P09483+P12390).
T1 construct: Rat cortices were obtained from Analytical Biological Services; tissue Analytical Biological Services, Incorporated (ABS, Wilmington, Del.); host or cells: rat cortex (female Sprague-Dawley)
Kind of assay: Competition binding to rat α4β2 receptors in rat cortical membranes. The following applies: Rat α4β2 Ki, rat cortex membranes. Here is the method:
Preparation of membranes from rat tissues. Rat cortices were obtained from Analytical Biological Services, Incorporated (ABS, Wilmington, Del.). Tissues were dissected from female Sprague-Dawley rats, frozen and shipped on dry ice. Tissues were stored at −20° C. until needed for membrane preparation. […] The resulting homogenate was centrifuged at 40,000 g for 20 minutes at 4° C. and the resulting pellet was resuspended in 20 volumes of ice-cold water. After 60-minute incubation at 4° C., a new pellet was collected by centrifugation at 40,000 g for 20 minutes at 4° C. The final pellet was resuspended in preparative buffer and stored at −20° C. On the day of the assay, tissue was thawed, centrifuged at 40,000 g for 20 minutes and then resuspended in PBS (Dulbecco's Phosphate Buffered Saline, Life Technologies, pH 7.4) to a final concentration of 2-3 mg protein/mL. Protein concentrations were determined using the Pierce BCA Protein Assay kit (Pierce Biotechnology, Rockford, Ill.), with bovine serum albumin as the standard.
Competition binding to receptors in membrane preparations. […] In brief, membranes were reconstituted from frozen stocks (approximately 0.2 mg protein) and incubated for 2 h on ice in […] assay buffer (PBS) in the presence of competitor compound (0.001 nM to […]) and radioligand. [^3H]-nicotine (L-(−)-[N-methyl-3H]-nicotine, 69.5 Ci/mmol, Perkin-Elmer Life Sciences) was used for human α4β2 binding studies. [^3H]-epibatidine (52 Ci/mmol, Perkin-Elmer Life Sciences) was used for binding studies at the other receptor subtypes. […] Filters were washed 3 times and the radioactivity retained was determined by liquid scintillation counting.
Binding data analysis. Binding data were expressed as percent total control binding. Replicates for each point were averaged and plotted against the log of drug concentration.
In turn, `O=C(c1ccc(Br)o1)N1CC2CC(C1)N2` [3-(2-bromofuran-5-yl)carbonyl-3,6-diazabicyclo[3.1.1]heptane] came in with a Ki of 83 nM.
Molecule `O=C([C@H]1C[C@H]1F)N1CC2CC(C1)N2` [drawing 163] registered a Ki of 0.53 nM.
On the same count and under the same terms, with `CC1CC(C(=O)N2CC3CC(C2)N3)C1` (stereo not drawn) the figure was 22 nM.
For the molecule `C/C=C/CCC(=O)N1C2CNCC1C2`, the affinity, expressed as Ki, was 15 nM.
On the same count and under the same terms, the same measure for `C[C@@H]1C[C@H]1C(=O)N1C2CNCC1C2`: 50 nM; for `O=C(C1CC1(F)F)N1CC2CC(C1)N2` (stereo not drawn): 8.8 nM.
`C[C@H]1C[C@H]1C(=O)N1CC2CC(C1)N2`: the affinity, expressed as Ki, was 0.39 nM.
On the same count and under the same terms, the same measure for `C[C@@H]1C(C(=O)N2CC3CC(C2)N3)[C@@H]1C` (stereo partly drawn): 30 nM; for `CC1CC(C(=O)N2C3CNCC2C3)C1` (stereo not drawn): 58 nM.
For the molecule `C[C@H]1C[C@@H]1C(=O)N1CC2CC(C1)N2` [drawing 170], the affinity, expressed as Ki, was 4.8 nM.
In turn, `O=C(CSc1ccc(O)cc1)N1CC2CC(C1)N2` yielded a Ki of 8.6 nM.
Same read-out and setting: the same measure for `O=C(CSc1ccc(Cl)c(Cl)c1)N1CC2CC(C1)N2`: 16 nM.
On the same count and under the same terms, with `CCCC(=O)N1CC2CC(C1)N2` the figure was 4.1 nM.

The assay is the same for the next values; noted with them: rat cortex membranes, read-out: Rat α4β2 Ki.
Take `O=C(C1CC2C=CC1C2)N1C2CNCC1C2` (stereo not drawn): the Ki turned out to be 380 nM.
In the case of `C[C@H]1C[C@H]1C(=O)N1C2CNCC1C2`, the Ki is 180 nM.
Same read-out and setting: with `CCC[C@H]1C[C@H]1C(=O)N1CC2CC(C1)N2` the figure was 130 nM.

Another assay deals with T2, α6β3β4α5 (Homo sapiens, UniProt P30926+Q15825).
T2 construct: host or cells: SH-EP1
Kind of assay: Competition binding to α6β3β4α5 receptors in membranes of SH-EP1/α6β3β4α5 cells ([3H]-epibatidine). The following applies: membrane competition binding, read-out: α6β3β4α5 Ki.
Take `O=C(c1ccc(Br)o1)N1CC2CC(C1)N2` [3-(2-bromofuran-5-yl)carbonyl-3,6-diazabicyclo[3.1.1]heptane]: the inhibition constant (Ki) was found to be 1800 nM.
Same read-out and setting: the same measure for `O=C(C1CC2C=CC1C2)N1C2CNCC1C2` (stereo not drawn): 900 nM.
Same read-out and setting: with `CC1CC(C(=O)N2CC3CC(C2)N3)C1` (stereo not drawn) the figure was 380 nM.
The same measure, in the same setting: with `C[C@H]1C[C@H]1C(=O)N1C2CNCC1C2` the figure was 1800 nM; with `C/C=C/CCC(=O)N1C2CNCC1C2`, 400 nM; with `C[C@@H]1C[C@H]1C(=O)N1C2CNCC1C2`, 1700 nM.
For `C[C@@H]1C(C(=O)N2CC3CC(C2)N3)[C@@H]1C` (stereo partly drawn), the Ki came to 170 nM.
Regarding `CC1CC(C(=O)N2C3CNCC2C3)C1` (stereo not drawn), the Ki turned out to be 770 nM.
Still for that read-out and setting: with `CCC[C@H]1C[C@H]1C(=O)N1CC2CC(C1)N2` the figure was 220 nM; with `O=C(CSc1ccc(O)cc1)N1CC2CC(C1)N2`, 120 nM.

The same assay, now with this note: α6β3β4α5 Ki, membrane competition binding.
As for `O=C([C@H]1C[C@H]1F)N1CC2CC(C1)N2` [drawing 163], the Ki was found to be 150 nM.
`O=C(C1CC1(F)F)N1CC2CC(C1)N2` (stereo not drawn) displayed a Ki of 510 nM.
Same read-out and setting: the same measure for `C[C@H]1C[C@H]1C(=O)N1CC2CC(C1)N2`: 58 nM.
On the same count and under the same terms, with `C[C@H]1C[C@@H]1C(=O)N1CC2CC(C1)N2` [drawing 170] the figure was 1700 nM; with `O=C(CSc1ccc(Cl)c(Cl)c1)N1CC2CC(C1)N2`, 100 nM.
Same read-out and setting: with `CCCC(=O)N1CC2CC(C1)N2` the figure was 290 nM.

The target in another assay is T3, Human α4β2 (Homo sapiens, UniProt P17787+P43681).
T3 construct: host or cells: SH-EP1
Description: Competition binding to human α4β2 receptors in membranes of SH-EP1/human α4β2 cells ([3H]-nicotine). The conditions noted are these: Human α4β2 Ki, membrane competition binding.
With `O=C(c1ccc(Br)o1)N1CC2CC(C1)N2` [3-(2-bromofuran-5-yl)carbonyl-3,6-diazabicyclo[3.1.1]heptane], the Ki was 25 nM.
On the same count and under the same terms, the same measure for `CC1CC(C(=O)N2CC3CC(C2)N3)C1` (stereo not drawn): 23 nM.
On the same count and under the same terms, with `C[C@H]1C[C@H]1C(=O)N1C2CNCC1C2` the figure was 9.6 nM.
Same read-out and setting: the same measure for `C/C=C/CCC(=O)N1C2CNCC1C2`: 53 nM; for `C[C@@H]1C[C@H]1C(=O)N1C2CNCC1C2`: 9.2 nM; for `O=C(C1CC1(F)F)N1CC2CC(C1)N2` (stereo not drawn): 6.1 nM.
For the molecule `C[C@H]1C[C@H]1C(=O)N1CC2CC(C1)N2`, the Ki worked out at 1.8 nM.
Same read-out and setting: the same measure for `C[C@@H]1C(C(=O)N2CC3CC(C2)N3)[C@@H]1C` (stereo partly drawn): 44 nM; for `CC1CC(C(=O)N2C3CNCC2C3)C1` (stereo not drawn): 49 nM; for `CCC[C@H]1C[C@H]1C(=O)N1CC2CC(C1)N2`: 44 nM.
In turn, `C[C@H]1C[C@@H]1C(=O)N1CC2CC(C1)N2` [drawing 170] registered a Ki of 13 nM.
Same read-out and setting: the same measure for `O=C(CSc1ccc(O)cc1)N1CC2CC(C1)N2`: 11 nM.
The same measure, in the same setting: with `O=C(CSc1ccc(Cl)c(Cl)c1)N1CC2CC(C1)N2` the figure was 2.3 nM; with `CCCC(=O)N1CC2CC(C1)N2`, 12 nM.

Staying with this assay, now noted: membrane competition binding, read-out: Human α4β2 Ki.
In the case of `O=C(C1CC2C=CC1C2)N1C2CNCC1C2` (stereo not drawn), the Ki came to 200 nM.
The same measure, in the same setting: with `O=C([C@H]1C[C@H]1F)N1CC2CC(C1)N2` [drawing 163] the figure was 1.1 nM.
